According to patent US20210393633A1, “INHIBITORS OF HUMAN IMMUNODEFICIENCY VIRUS REPLICATION” (ViiV HEALTHCARE UK (NO.5) LIMITED, priority 2018, published 2021):

What was measured:
[1] = tested on: recombinant NL4-3 virus (nef section replaced with Renilla luciferase gene) in MT-2 cells; assay: HIV cell culture assay (antiviral activity, luciferase readout in infected MT-2 cells); assay type: cell-based; details: NL43
Procedure: HIV cell culture assay—MT-2 cells, 293T cells and the proviral DNA clone of NL4-3 virus were obtained from the NIH AIDS Research and Reference Reagent Program. MT-2 cells were propagated in RPMI 1640 media supplemented with 10% heat inactivated fetal bovine serum (FBS), […]. The 293T cells were propagated in DMEM media supplemented with 10% heat inactivated FBS, […]. A recombinant NL4-3 proviral clone, in which a section of the nef gene was replaced with the Renilla luciferase gene, was used to make the reference virus used in these studies. The recombinant virus was prepared through transfection of the recombinant NL4-3 proviral clone into 293T cells using Transit-293 Transfection Reagent from Minis Bio LLC (Madison, Wis.). Supernatent was harvested after 2-3 days and the amount of virus present was titered in MT-2 cells using luciferase enzyme activity as a marker by measuring luciferase enzyme activity. Luciferase was quantitated using the EnduRen Live Cell Substrate from Promega (Madison, Wis.). Antiviral activities of compounds toward the recombinant virus were quantified by measuring luciferase activity in MT-2 cells infected for 4-5 days with the recombinant virus in the presence of serial dilutions of the compound.
The 50% effective concentration (EC5o) was calculated by using the exponential form of the median effect equation where (Fa)=1/[1+(ED50/drug conc.)m] (Johnson Va., Byington R T. Infectivity Assay. In Techniques in HIV Research. ed. Aldovini A, Walker B D. 71-76. New York: Stockton Press.1990). The 50% inhibitory concentration (EC50) was calculated by using the exponential form of the median effect equation where percent inhibition=1/[1 +(EC50/drug concentration)m], where m is a parameter that reflects the slope of the concentration-response curve.

[2] = Compound cytotoxicity, XTT-based colorimetric assay; assay type: cell-based; details: human; uninfected MT2 cells, day 4, XTT
Procedure: Compound cytotoxicity and the corresponding CC50 values were determined using the same protocol as described in the antiviral assay except that uninfected cells were used. Cytotoxicity was assessed on day 4 in uninfected MT2 cells by using a XTT (2,3-bis[2-Methoxy-4-nitro-5-sulfophenyl]-2H-tetrazolium-5-carboxyanilide inner salt)-based colorimetric assay (Sigma-Aldrich, St Louis, Mo).

Structure (SMILES)	EC50 [1] [nM]	CC50 at 4 day [2] [nM]
Cn1nc(NS(C)(=O)=O)c2c(Cl)ccc(-n3c([C@H](Cc4cc(F)cc(F)c4)NC(=O)Cn4nc(C(F)F)c5c4C(F)(F)[C@@H]4C[C@H]54)nc4cc(CCc5ccccc5)ccc4c3=O)c21 (atropisomer, axis not shown; (P)) [Example 3, N—((S)-1-((3P)-3-(4-chloro-1-methyl-3-(methylsulfonamido)-1H-indazol-7-yl)-4-oxo-7-phenethyl-3,4-dihydroquinazolin-2-yl)-2-(3,5-difluorophenyl)ethyl)-2-((3bS,4aR)-3-(difluoromethyl)-5,5-difluoro-3b,4,4a,5-tetrahydro-1H-cyclopropa[3,4]cyclopenta[1,2-c]pyrazol-1-yl)acetamide]	0.771	> 1000
CCCCCCCCc1ccc2c(=O)n(-c3ccc(Cl)c4c(NS(C)(=O)=O)nn(C)c34)c([C@H](Cc3cc(F)cc(F)c3)NC(=O)Cn3nc(C(F)F)c4c3C(F)(F)[C@@H]3C[C@H]43)nc2c1 (atropisomer, axis not shown; (P)) [Example 4, N—((S)-1-((3P)-3-(4-chloro-1-methyl-3-(methylsulfonamido)-1H-indazol-7-yl)-7-octyl-4-oxo-3,4-dihydroquinazolin-2-yl)-2-(3,5-difluorophenyl)ethyl)-2-((3bS,4aR)-3-(difluoromethyl)-5,5-difluoro-3b,4,4a, 5-tetrahydro-1H-cyclopropa[3, 4]cyclopenta [1,2-c]pyrazol-1-yl)acetamide]	3.9	> 1000
Cn1nc(NS(C)(=O)=O)c2c(Cl)ccc(-n3c([C@H](Cc4cc(F)cc(F)c4)NC(=O)Cn4nc(C(F)F)c5c4C(F)(F)[C@@H]4C[C@H]54)nc4cc(Cc5ccccc5)ccc4c3=O)c21 (atropisomer, axis not shown; (P)) [Example 5, N—((S)-1-(7-benzyl-(3P)-3-(4-chloro-1-methyl-3-(methylsulfonamido)-1H-indazol-7-yl)-4-oxo-3,4-dihydroquinazolin-2-yl)-2-(3,5-difluorophenyl)ethyl)-2-((3bS,4aR)-3-(difluoromethyl)-5,5-difluoro-3b,4,4a,5-tetrahydro-1H-cyclopropa[3,4]cyclopenta[1,2-c]pyrazol-1-yl)acetamide]	0.221	> 1000
Cn1nc(NS(C)(=O)=O)c2c(Cl)ccc(-n3c([C@H](Cc4cc(F)cc(F)c4)NC(=O)Cn4nc(C(F)F)c5c4C(F)(F)[C@@H]4C[C@H]54)nc4cc(C5=CCCCC5)ccc4c3=O)c21 (atropisomer, axis not shown; (P)) [Example 6, N—((S)-1-((3P)-3-(4-chloro-1-methyl-3-(methylsulfonamido)-1H-indazol-7-yl)-7-(cyclohex-1-en-1-yl)-4-oxo-3,4-dihydroquinazolin-2-yl)-2-(3,5-difluorophenyl)ethyl)-2-((3bS,4aR)-3-(difluoromethyl)-5,5-difluoro-3b,4,4a,5-tetrahydro-1H-cyclopropa[3,4]cyclopenta[1,2-c]pyrazol-1-yl)acetamide]	1.32	> 1000
CC(C)=C(C)c1ccc2c(=O)n(-c3ccc(Cl)c4c(NS(C)(=O)=O)nn(C)c34)c([C@H](Cc3cc(F)cc(F)c3)NC(=O)Cn3nc(C(F)F)c4c3C(F)(F)[C@@H]3C[C@H]43)nc2c1 (atropisomer, axis not shown; (P)) [Example 7, N—((S)-1-((3P)-3-(4-chloro-1-methyl-3-(methylsulfonamido)-1H-indazol-7-yl)-7-(3-methylbut-2-en-2-yl)-4-oxo-3,4-dihydroquinazolin-2-yl)-2-(3,5-difluorophenyl)ethyl)-2-((3bS,4aR)-3-(difluoromethyl)-5,5-difluoro-3b,4,4a,5-tetrahydro-1H-cyclopropa[3,4]cyclopenta[1,2-c]pyrazol-1-yl)acetamide]	0.386	> 1000
Cn1nc(NS(C)(=O)=O)c2c(Cl)ccc(-n3c([C@H](Cc4cc(F)cc(F)c4)NC(=O)Cn4nc(C(F)F)c5c4C(F)(F)[C@@H]4C[C@H]54)nc4cc(C5=CCCC5)ccc4c3=O)c21 (atropisomer, axis not shown; (P)) [Example 8, N—((S)-1-((3P)-3-(4-chloro-1-methyl-3-(methylsulfonamido)-1H-indazol-7-yl)-7-(cyclopent-1-en-1-yl)-4-oxo-3,4-dihydroquinazolin-2-yl)-2-(3,5-difluorophenyl)ethyl)-2-((3bS,4aR)-3-(difluoromethyl)-5,5-difluoro-3b,4,4a,5-tetrahydro-1H-cyclopropa[3,4]cyclopenta[1,2-c]pyrazol-1-yl)acetamide]	0.392	> 1000
Cn1nc(NS(C)(=O)=O)c2c(Cl)ccc(-n3c([C@H](Cc4cc(F)cc(F)c4)NC(=O)Cn4nc(C(F)F)c5c4C(F)(F)[C@@H]4C[C@H]54)nc4cc(C5=CCOCC5)ccc4c3=O)c21 (atropisomer, axis not shown; (P)) [Example 9, N—((S)-1-((3P)-3-(4-chloro-1-methyl-3-(methylsulfonamido)-1H-indazol-7-yl)-7-(3,6-dihydro-2H-pyran-4-yl)-4-oxo-3,4-dihydroquinazolin-2-yl)-2-(3,5-difluorophenyl)ethyl)-2-((3bS,4aR)-3-(difluoromethyl)-5,5-difluoro-3b,4,4a,5-tetrahydro-1H-cyclopropa[3,4]cyclopenta[1,2-c]pyrazol-1-yl)acetamide]	0.064	> 1000
Cn1nc(NS(C)(=O)=O)c2c(Cl)ccc(-n3c([C@H](Cc4cc(F)cc(F)c4)NC(=O)Cn4nc(C(F)F)c5c4C(F)(F)[C@@H]4C[C@H]54)nc4cc(C5CCOCC5)ccc4c3=O)c21 (atropisomer, axis not shown; (P)) [Example 11, N—((S)-1-((3P)-3-(4-chloro-1-methyl-3-(methylsulfonamido)-1H-indazol-7-yl)-4-oxo-7-(tetrahydro-2H-pyran-4-yl)-3,4-dihydroquinazolin-2-yl)-2-(3,5-difluorophenyl)ethyl)-2-((3bS,4aR)-3-(difluoromethyl)-5,5-difluoro-3b,4,4a,5-tetrahydro-1H-cyclopropa[3,4]cyclopenta[1,2-c]pyrazol-1-yl)acetamide]	0.046	> 1000
Cn1nc(NS(C)(=O)=O)c2c(Cl)ccc(-n3c([C@H](Cc4cc(F)cc(F)c4)NC(=O)Cn4nc(C(F)F)c5c4C(F)(F)[C@@H]4C[C@H]54)nc4cc(CC5CC5)ccc4c3=O)c21 (atropisomer, axis not shown; (P)) [Example 12, N—((S)-1-((3P)-3-(4-chloro-1-methyl-3-(methylsulfonamido)-1H-indazol-7-yl)-7-(cyclopropylmethyl)-4-oxo-3,4-dihydroquinazolin-2-yl)-2-(3,5-difluorophenyl)ethyl)-2-((3bS,4aR)-3-(difluoromethyl)-5,5-difluoro-3b,4,4a,5-tetrahydro-1H-cyclopropal3,41cyclopenta[1,2-c]pyrazol-1-yl)acetamide]	0.142	> 1000
CN1CC=C(c2ccc3c(=O)n(-c4ccc(Cl)c5c(NS(C)(=O)=O)nn(C)c45)c([C@H](Cc4cc(F)cc(F)c4)NC(=O)Cn4nc(C(F)F)c5c4C(F)(F)[C@@H]4C[C@H]54)nc3c2)CC1 (atropisomer, axis not shown; (P)) [Example 13]	0.098	> 1000
CN1CCC(c2ccc3c(=O)n(-c4ccc(Cl)c5c(NS(C)(=O)=O)nn(C)c45)c([C@H](Cc4cc(F)cc(F)c4)NC(=O)Cn4nc(C(F)F)c5c4C(F)(F)[C@@H]4C[C@H]54)nc3c2)CC1 (atropisomer, axis not shown; (P)) [Example 14, N—((S)-1-((3P)-3-(4-chloro-1-methyl-3-(methylsulfonamido)-1H-indazol-7-yl)-7-(1-methylpiperidin-4-yl)-4-oxo-3,4-dihydroquinazolin-2-yl)-2-(3,5-difluorophenyl)ethyl)-2-((3bS,4aR)-3-(difluoromethyl)-5,5-difluoro-3b,4,4a,5-tetrahydro-1H-cyclopropa[3,4]cyclopenta[1,2-c]pyrazol-1-yl)acetamide]	0.23	> 500
CC(C)CCC(F)(F)c1ccc2c(=O)n(-c3ccc(Cl)c4c(NS(C)(=O)=O)nn(C)c34)c([C@H](Cc3cc(F)cc(F)c3)NC(=O)Cn3nc(C(F)F)c4c3C(F)(F)[C@@H]3C[C@H]43)nc2c1 (atropisomer, axis not shown; (P)) [Example 23, N—((S)-1-((3P)-3-(4-chloro-1-methyl-3-(methylsulfonamido)-1H-indazol-7-yl)-7-(1,1-difluoro-4-methylpentyl)-4-oxo-3,4-dihydroquinazolin-2-yl)-2-(3,5-difluorophenyl)ethyl)-2-((3bS,4aR)-3-(difluoromethyl)-5,5-difluoro-3b,4,4a,5-tetrahydro-1H-cyclopropa[3,4]cyclopenta[1,2-c]pyrazol-1-yl)acetamide]	4.4	
